# From US6288091A, “Antiherpes virus compounds and methods for their preparation and use” (Boehringer Ingelheim Ltd., priority 1999, dated 2001)
# Read-outs that look alike come from different tables or passages of the source.
# How the values were obtained:
# HCMV (strain AD169) = assay: Inhibition of HCMV replication, plaque reduction assay (PRA, Hs-68 cells); assay type: cell-based, Human Cytomegalovirus (HCMV); conditions: read-out: PRA CMV EC50
# Procedure: C) Inhibition of Human Cytomegalovirus (HCMV) Replication
# The effect of compounds on the replication of HCMV has been measured by using an ELISA-based assay (ELISA) and a plaque reduction assay (PRA).
# Hs-68 cells (ATCC # CRL 1635) were seeded in 12-well plates at 83,000 cells/well in 1 mL of DMEM medium (Gibco Canada Inc.) supplemented with 10% fetal bovine serum (FBS, Gibco Canada Inc.). The plates were incubated for 3 days at 37° to allow the cells to reach 80-90% confluency prior to the assay.
# The medium was removed from the cells by aspiration. The cells were then infected with approximately 50 PFU of HCMV (strain AD169, ATCC VR-538) in DMEM medium supplemented with 5% inactivated FBS (assay medium). The virus was allowed to adsorb to cells for 2 h at 37°. Following viral adsorption, the medium was removed from the wells by aspiration. The cells were then incubated with or without 1 mL of appropriate concentrations of test reagent in assay medium. After 4 days of incubation at 37°, the medium was exchanged with fresh medium containing test compound and 4 days later the cells were fixed with 1% aqueous formaldehyde and stained with a 2% crystal violet solution in 20% ethanol in water. Microscopic plaques were counted using a stereomicroscope. Drug effects were calculated as a percent reduction in the number of plaques in the presence of each drug concentration compared to the number observed in the absence of drug. Ganciclovir was used as a positive control in all experiments.
# The EC50 values obtained according to this assay for certain thiazolyl derivatives of this invention are listed in the following tables under the heading PRA CMV.
# HSV-1 helicase-primase = molecular target: T1, HSV-1 helicase-primase (Human herpesvirus 1, UniProt P10189+P10236); assay: HSV-1 DNA-dependent ATPase assay (inhibition of HSV-1 helicase-primase); assay type: biochemical; conditions: Group 1 Table 1 entries
# T1 construct: made in house; host or cells: Sf21 insect cells triply infected with recombinant baculoviruses (UL5, UL8, UL52)
# T1 sequence (P10192 whole entry): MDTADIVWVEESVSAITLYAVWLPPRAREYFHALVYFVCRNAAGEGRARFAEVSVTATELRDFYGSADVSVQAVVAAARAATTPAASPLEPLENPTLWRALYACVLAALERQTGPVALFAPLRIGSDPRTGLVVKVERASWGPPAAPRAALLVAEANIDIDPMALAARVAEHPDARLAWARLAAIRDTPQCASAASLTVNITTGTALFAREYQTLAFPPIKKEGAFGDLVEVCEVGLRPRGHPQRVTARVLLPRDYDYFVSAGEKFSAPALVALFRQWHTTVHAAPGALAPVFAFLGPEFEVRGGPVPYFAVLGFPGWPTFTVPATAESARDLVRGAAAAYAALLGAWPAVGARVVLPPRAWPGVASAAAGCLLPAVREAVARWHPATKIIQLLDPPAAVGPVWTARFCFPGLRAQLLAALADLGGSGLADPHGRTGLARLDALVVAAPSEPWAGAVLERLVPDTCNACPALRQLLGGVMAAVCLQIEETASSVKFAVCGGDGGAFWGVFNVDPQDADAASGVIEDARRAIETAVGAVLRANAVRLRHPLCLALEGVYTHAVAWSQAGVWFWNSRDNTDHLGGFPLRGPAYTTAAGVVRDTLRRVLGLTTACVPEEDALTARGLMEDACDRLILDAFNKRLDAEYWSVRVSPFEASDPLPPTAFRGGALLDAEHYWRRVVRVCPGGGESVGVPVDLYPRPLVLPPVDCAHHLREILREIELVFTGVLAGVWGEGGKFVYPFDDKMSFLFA
# T1 sequence (P10236 whole entry): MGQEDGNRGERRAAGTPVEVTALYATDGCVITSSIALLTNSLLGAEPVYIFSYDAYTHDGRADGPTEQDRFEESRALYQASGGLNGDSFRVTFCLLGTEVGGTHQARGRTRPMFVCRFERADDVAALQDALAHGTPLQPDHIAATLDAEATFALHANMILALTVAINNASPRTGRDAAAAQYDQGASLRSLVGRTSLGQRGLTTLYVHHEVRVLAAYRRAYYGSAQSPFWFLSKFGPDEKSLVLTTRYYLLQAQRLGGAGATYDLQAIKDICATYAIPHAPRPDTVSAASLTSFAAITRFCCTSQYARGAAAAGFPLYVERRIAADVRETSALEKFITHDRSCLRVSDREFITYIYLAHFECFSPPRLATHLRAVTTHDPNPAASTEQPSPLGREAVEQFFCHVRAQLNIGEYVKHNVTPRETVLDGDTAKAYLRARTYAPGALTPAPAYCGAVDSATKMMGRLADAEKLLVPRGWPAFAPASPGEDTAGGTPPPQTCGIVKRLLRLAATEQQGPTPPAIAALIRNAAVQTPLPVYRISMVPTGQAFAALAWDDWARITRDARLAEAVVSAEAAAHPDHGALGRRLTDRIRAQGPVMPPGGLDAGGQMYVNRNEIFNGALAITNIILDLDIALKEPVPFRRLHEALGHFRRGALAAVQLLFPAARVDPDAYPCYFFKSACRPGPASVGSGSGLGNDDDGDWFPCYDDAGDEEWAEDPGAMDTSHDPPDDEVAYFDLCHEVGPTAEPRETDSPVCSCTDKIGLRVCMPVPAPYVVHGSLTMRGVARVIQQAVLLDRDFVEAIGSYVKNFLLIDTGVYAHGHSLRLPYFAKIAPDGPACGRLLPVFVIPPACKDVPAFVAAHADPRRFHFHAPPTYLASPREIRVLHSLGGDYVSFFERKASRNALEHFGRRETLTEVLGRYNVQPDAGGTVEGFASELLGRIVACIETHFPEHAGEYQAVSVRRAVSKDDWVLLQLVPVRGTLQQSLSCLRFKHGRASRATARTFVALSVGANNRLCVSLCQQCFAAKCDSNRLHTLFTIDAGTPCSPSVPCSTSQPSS
# T1 sequence (P10189 whole entry): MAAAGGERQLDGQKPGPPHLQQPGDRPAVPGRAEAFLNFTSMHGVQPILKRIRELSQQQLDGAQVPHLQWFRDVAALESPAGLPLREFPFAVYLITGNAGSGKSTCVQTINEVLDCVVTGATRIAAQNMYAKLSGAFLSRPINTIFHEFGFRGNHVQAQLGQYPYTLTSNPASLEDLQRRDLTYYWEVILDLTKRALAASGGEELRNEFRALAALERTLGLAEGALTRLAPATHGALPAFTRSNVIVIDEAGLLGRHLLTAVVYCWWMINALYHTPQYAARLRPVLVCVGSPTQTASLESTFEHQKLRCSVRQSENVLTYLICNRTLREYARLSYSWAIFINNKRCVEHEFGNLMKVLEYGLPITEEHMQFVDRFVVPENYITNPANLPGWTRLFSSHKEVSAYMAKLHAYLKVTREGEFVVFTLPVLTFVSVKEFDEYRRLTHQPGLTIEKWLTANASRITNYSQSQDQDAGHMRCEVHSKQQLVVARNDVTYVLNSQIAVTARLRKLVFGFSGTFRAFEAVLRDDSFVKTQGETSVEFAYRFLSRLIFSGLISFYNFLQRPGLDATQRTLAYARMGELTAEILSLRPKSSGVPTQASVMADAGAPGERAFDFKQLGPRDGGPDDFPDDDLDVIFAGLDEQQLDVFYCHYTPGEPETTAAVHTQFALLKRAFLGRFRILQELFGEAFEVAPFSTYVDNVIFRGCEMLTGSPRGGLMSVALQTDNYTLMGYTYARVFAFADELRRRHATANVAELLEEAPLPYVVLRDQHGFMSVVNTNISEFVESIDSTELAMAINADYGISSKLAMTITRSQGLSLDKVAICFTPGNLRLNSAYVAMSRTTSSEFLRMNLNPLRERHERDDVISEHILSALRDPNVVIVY
# From the text: A) HSV-1 DNA-Dependent ATP Assay (an in Vitro Assay Based on the Inhibition of HSV-1 Helicase-primase).
# HSV-1 helicase-primase holoenzyme was produced in triply infected Sf21 cells using recombinant baculoviruses expressing the UL5, UL8 and UL52 helicase-primase subunits, as described by S. Dracheva et al., J. Biol. Chem. 1995, 270, 14148. The crude enzyme was purified by ammonium sulfate precipitation, Source 15Q® chromatography and Sephacryl® S-300 HR gel filtration (both purification systems can be obtained from Pharmacia Biotech Inc., Montreal, Quebec, Canada), see S. Dracheva et al., supra.
# The DNA-dependent ATPase assay, described by J. J. Crute et al., Nucleic Acids Res. 1988, 16, 6585, was modified and used to evaluate the capability of the compounds of Group 1-formula 1 to inhibit HSV-1 helicase-primase activity. The reaction mixtures (80 μL each) contained 40 mM 4-(2-hydroxyethyl)-1-piperazineethanesulfonic acid (HEPES, pH 7.5), 10% (v/v) glycerol, 5.5 mM MgCl2, 1 mM DL-dithiothreitol (DTT), 50 μg/mL acetylated bovine serum albumin, 3.3% (v/v) DMSO, 4 mM ATP, 25 μM single-stranded M13 DNA hybridized to double-tailed 68-mer oligonucleotide and 3 μg/mL HSV-1 helicase-primase. After incubation for 20 min at 34°, formation of inorganic phosphate from hydrolysis of ATP was monitored spectrophotometrically at 650 nm using acidic ammonium molybdate/malachite green reagent, P. A. Lanzetta et al., Anal. Biochem. 1979, 100, 95. DNA-dependent ATPase activity was calculated from the net absorbance change in the presence and absence of inhibition.
# HSV-1 strain F or KOS = assay: Inhibition of herpes simplex virus (HSV-1) replication in cell culture (BHK-21 cells, glycoprotein C ELISA); assay type: cell-based; conditions: Human alphaherpesvirus 1, BHK-21, Group 1 Table 1 entries
# Procedure: B) Inhibition of Herpes Simplex Virus (HSV-1) Replication in Cell Culture
# BHK-21 cells clone 13 (ATCC CCL10) were incubated for two days in 850 cm^2 roller bottles (2×10^7 cells/bottle) with A-MEM medium (Gibco Canada Inc., Burlington, Ontario, Canada) supplemented with 8% (v/v) fetal bovine serum (FBS, Gibco Canada, Inc.). The cells were trypsinized and then 3,000 cells in 100 μL of fresh medium were transferred into each well of a 96-well microtiter plate. The cells were incubated at […] for a period of 3 days to reach a density of 50,000 cells per well. The cells were washed twice with 100 μL of α-MEM supplemented with 2% heat inactivated FBS and incubated for 1-2 hours in 100 μL of the same medium.
# Thereafter, the cells were infected with HSV-1 strain F or KOS (multiplicity of infection =0.05 PFU/cell) in 50 μL of α-MEM supplemented with 2% heat inactivated FBS. Following one hour of virus absorption at 37°, the medium was removed and the cells were washed with α-MEM supplemented with 2% heat inactivated FBS (2×100 μL). The cells were incubated with or without 100 μL of the appropriate concentration of test reagent in α-MEM medium supplemented with 2% heat inactivated FBS. After 24 hours of incubation at 37°, the extent of viral replication was determined by an ELISA assay; for instance, the following assay that detects the late glycoprotein C of HSV-1.
# Cells were fixed in the microtiter plate with 100 μL of 0.063% glutaraldehyde in phosphate buffered saline for 30 min at room temperature. The microtiter plate was then washed once with casein blocking solution and blocked with 200 μL of the same solution for one hour at room temperature. Thereafter, 100 μL of mAb C11 recognizing the glycoprotein C of HSV-1 (see E. Trybala et al., Journal of General Virology, 1994, 75, 743) was added to each well for two hours at room temperature. The plate was washed three times with phosphate buffered saline containing 0.05% polyoxyethylene (20) sorbitan monooleate. The cells were incubated with 100 μL of sheep anti-mouse IgG horseradish peroxidase for one hour at room temperature in the dark.
# The plate was washed three times with 200 μL of the above-noted phosphate buffer saline preparation, and then once with 0.1 M sodium citrate (pH 4.5). Thereafter, 100 μL of orthophenylenediamine dihydrochloride (OPD, Gibco, Canada Inc.) was added to each well. The plate was agitated on a microplate shaker for 30 min in the dark. Color development was monitored at 450 nm using a microplate spectrophotometer.
# SAS was used to calculate % inhibition of viral replication and to generate EC50 values.
# [1] = Human betaherpesvirus 5, AD169, Hs68, Group 1 Table 1 entries
# [2] = Human betaherpesvirus 5, AD169, Hs68, Group 2 Table 1 entries
SMILES,"EC50 (HCMV (strain AD169); Human betaherpesvirus 5, AD169, Hs68, Group 1 Table 2 entries) [nM]",EC50 (HCMV (strain AD169); [1]) [nM],EC50 (HCMV (strain AD169); [2]) [nM],IC50 (HSV-1 helicase-primase) [nM],EC50 (HSV-1 strain F or KOS) [nM]
Nc1nc(-c2ccc(NC(=O)CCN(Cc3ccccc3)Cc3ccccn3)cc2)cs1 [Example 26],14000,,,,
Cc1cc(C)nc(SCC(=O)N(CC(=O)Nc2ccc(-c3csc(N)n3)cc2)Cc2ccccc2C)n1 [Example 130],,8800,,,
CCCCN(CCCC)C(=O)Nc1ccc(-c2csc(Nc3ccccn3)n2)cc1 [Example 35],,,2200,,
Nc1nc(-c2ccc(NC(=O)NCCc3c[nH]c4ccccc34)cc2)cs1 [Example 19],,,12000,,
Nc1nc(-c2ccc(NC(=O)Nc3nccs3)cc2)cs1 [Example 18],,,> 56000,,
CCCCN(C)C(=O)Nc1ccc(-c2csc(NC(=O)OC(C)(C)C)n2)cc1 [Example 30],,,2200,,
Nc1nc(-c2ccc(NC(=O)CN(Cc3ccccc3)C(=O)Cc3ccsc3)cc2)cs1 [Example 117],,35000,,,
CCCCNc1nc(-c2ccc(NC(=O)N(CCCC)CCCC)cc2)cs1 [Example 34],,,10000,,
Cc1ccccc1CN(CC(=O)Nc1ccc(-c2csc(N)n2)cc1)C(=O)Cc1cccs1 [Example 131],,16000,,,
CCCCN(CC#N)C(=O)Nc1ccc(-c2csc(NC(=O)OC(C)(C)C)n2)cc1 [Example 33],,,2400,,
Cc1cccc(CN(CC(=O)Nc2ccc(-c3csc(N)n3)cc2)C(=O)c2ccncc2)c1 [Example 151],,,,76,11
Nc1nc(C(=O)N(CC(=O)Nc2ccc(-c3csc(N)n3)cc2)Cc2ccccc2)cs1 [Example 171],,,,460,92
Cc1ccc(CNCC(=O)Nc2ccc(-c3csc(N)n3)cc2)cc1 [Example 6],,,,19000,18000
Cc1cccc(C)c1CN(CC(=O)Nc1ccc(-c2csc(N)n2)cc1)C(=O)c1ccncc1 [Example 156],,,,3500,420
Nc1nc(-c2ccc(NC(=O)CN(Cc3ccccc3Cl)C(=O)c3ccncc3)cc2)cs1 [Example 145],,,,390,19
Cc1cccc(CN(CC(=O)Nc2ccc(-c3csc(N)n3)cc2)C(=O)c2ccncc2)c1C [Example 154],,,,41,5
Cc1ccc(C)c(CN(CC(=O)Nc2ccc(-c3csc(N)n3)cc2)C(=O)c2ccncc2)c1 [Example 155],,,,200,11
Cc1ccn(C)c1C(=O)N(CC(=O)Nc1ccc(-c2csc(N)n2)cc1)Cc1ccccc1 [Example 166],,,,430,30
COc1ccc(CNCC(=O)Nc2ccc(-c3csc(N)n3)cc2)cc1 [Example 7],,,,48000,7000
Cc1cnccc1C(=O)N(CC(=O)Nc1ccc(-c2csc(N)n2)cc1)Cc1ccccc1 [Example 167],,,,140,31

SMILES,"EC50 (HCMV (strain AD169); Human betaherpesvirus 5, AD169, Hs68, Group 1 Table 2 entries) [nM]",EC50 (HCMV (strain AD169); [1]) [nM],EC50 (HCMV (strain AD169); [2]) [nM],IC50 (HSV-1 helicase-primase) [nM],EC50 (HSV-1 strain F or KOS) [nM]
Nc1nc(-c2ccc(NC(=O)CN(Cc3ccc(Cl)c(I)c3)C(=O)c3ccncc3)cc2)cs1 [Example 70],,,,570,160
Cc1cc(C)cc(CN(CC(=O)Nc2ccc(-c3csc(N)n3)cc2)C(=O)c2ccncc2)c1 [Example 157],,,,40,10
COc1cccc(CN(CC(=O)Nc2ccc(-c3csc(N)n3)cc2)C(=O)c2ccncc2)c1 [Example 149],,,,450,55
Nc1nc(-c2ccc(NC(=O)CN(CCc3ccccn3)C(=O)c3ccncc3)cc2)cs1 [Example 158],,,,1800,440
Nc1nc(-c2ccc(NC(=O)CN(CCc3nccs3)C(=O)c3ccncc3)cc2)cs1 [Example 163],,,,2400,680
Cc1nc(CN(CC(=O)Nc2ccc(-c3csc(N)n3)cc2)C(=O)c2ccncc2)cs1 [Example 162],,,,2500,69
Cc1ccc(CN(CC(=O)Nc2ccc(-c3csc(N)n3)cc2)C(=O)c2ccncc2)cc1 [Example 152],,,,1600,77
CN(C)c1cccc2c(S(=O)(=O)N(CC(=O)Nc3ccc(-c4csc(N)n4)cc3)Cc3ccncc3)cccc12 [Example 99],,,,1600,670
Cc1nc(CCN(CC(=O)Nc2ccc(-c3csc(N)n3)cc2)C(=O)c2ccncc2)cs1 [Example 165],,,,4600,1100
Nc1nc(-c2ccc(NC(=O)CN(Cc3cccc(F)c3)C(=O)c3ccncc3)cc2)cs1 [Example 147],,,,350,22
Nc1nc(-c2ccc(NC(=O)CN(Cc3cccs3)C(=O)c3ccncc3)cc2)cs1 [Example 159],,,,1700,210
Nc1nc(-c2ccc(NC(=O)CNCc3ccc(Cl)cc3)cc2)cs1 [Example 5],,,,5400,42000
Cc1nc(C(=O)N(CC(=O)Nc2ccc(-c3csc(N)n3)cc2)Cc2ccccc2)cs1 [Example 172],,,,1600,360
Nc1nc(-c2ccc(NC(=O)CN(Cc3cscn3)C(=O)c3ccncc3)cc2)cs1 [Example 161],,,,3400,530
Nc1nc(-c2ccc(NC(=O)CN(Cc3cccc(F)c3)Cc3cccc(F)c3)cc2)cs1 [Example 18],,,,400,100
Nc1nc(-c2ccc(NC(=O)CN(Cc3ccc(F)cc3)C(=O)c3ccccc3)cc2)cs1 [Example 59],,,,300,15
[N-]=[N+]=Nc1ccc(C(=O)N(CC(=O)Nc2ccc(-c3csc(N)n3)cc2)Cc2ccccc2)cc1 [Example 74],,,,280,120
Cc1nc(C)c(C(=O)N(CC(=O)Nc2ccc(-c3csc(N)n3)cc2)Cc2ccccc2)s1 [Example 173],,,,950,50
Nc1nc(-c2ccc(NC(=O)CN(Cc3cccc(Cl)c3)C(=O)c3ccncc3)cc2)cs1 [Example 146],,,,150,5
Nc1nc(-c2ccc(NC(=O)CN(CCc3cccs3)C(=O)c3ccncc3)cc2)cs1 [Example 160],,,,680,51
